Laboratory results as given in the CheMixHub viscosity set.

Experiment: xn = mol fraction of the nth substance listed

NC=O + CCCO
viscosity [mPa·s]
Details | 308.15 K | 313.15 K | 318.15 K | 323.15 K
101 kPa, x1 = 0.0557 | – | 1.349 | 1.219 | –
101 kPa, x1 = 0.1172 | – | 1.388 | 1.263 | –
101 kPa, x1 = 0.1854 | – | 1.457 | 1.333 | –
101 kPa, x1 = 0.2615 | – | 1.595 | – | –
101 kPa, x2 = 0.0999 | – | 2.285 | 2.056 | 1.86
101 kPa, x2 = 0.2004 | – | 2.223 | 1.995 | 1.801
101 kPa, x2 = 0.3002 | – | 2.133 | 1.912 | 1.722
101 kPa, x2 = 0.4 | – | 2.015 | 1.804 | 1.624
101 kPa, x2 = 0.5 | – | 1.881 | 1.685 | 1.517
101 kPa, x2 = 0.6 | – | 1.74 | 1.561 | 1.405
101 kPa, x2 = 0.6998 | – | 1.61 | 1.447 | 1.304
101 kPa, x2 = 0.8 | – | 1.494 | 1.344 | 1.212
101 kPa, x2 = 0.9001 | – | 1.407 | 1.266 | 1.141
101.3 kPa, x1 = 0.0961 | – | 1.3 | 1.1 | 0.92
101.3 kPa, x1 = 0.1755 | – | 1.3 | 1.1 | 0.95
101.3 kPa, x1 = 0.2494 | – | 1.4 | 1.2 | 1
101.3 kPa, x1 = 0.3192 | – | 1.5 | 1.3 | 1.05
101.3 kPa, x1 = 0.3902 | – | 1.6 | 1.4 | 1.1
101.3 kPa, x1 = 0.4629 | – | 1.7 | 1.5 | 1.2
101.3 kPa, x1 = 0.5342 | – | 1.7 | 1.5 | 1.3
101.3 kPa, x1 = 0.614 | – | 1.9 | 1.6 | 1.3
101.3 kPa, x1 = 0.6891 | – | 2 | 1.7 | 1.4
101.3 kPa, x1 = 0.7654 | 2.3 | 2.1 | 1.8 | 1.5
101.3 kPa, x1 = 0.8114 | 2.4 | 2.1 | 1.9 | 1.5
101.3 kPa, x1 = 0.921 | 2.5 | 2.2 | 1.9 | 1.6
